Measured values published in paper PMC11984905, “Chiral Switch of Gadopiclenol: New Standards in MRI Probes” (Advanced Science, 2025).
Each block holds one compound with its values, some of them ahead of it.

Columns and labels:
[1] = Eu^3+ complex, 0.1 M Me4NCl, 25 °C, cited from earlier work
[2] = 0.1 M Me4NCl, 25 °C; cited from earlier work
[3] = Relaxivity (NMRD) in saline solution, human plasma and Seronorm at 310 K; assay type: physicochemical
Description: The magnetic‐field dependence of the longitudinal relaxation rate of water protons (^1H NMRD) were measured in aqueous solution by using a variable field relaxometer equipped with an HTS‐110 3T Metrology Cryogen‐free Superconducting Magnet (Mede, Italy), operating in the overall range of proton Larmor frequencies of 20–120 MHz (0.47–3.00 T). The measurements were performed using the standard inversion recovery sequence (20 experiments, 3 scans) with a 90° pulse width of 3.5 µs. The temperature was controlled with a Stelar VTC‐91 heater airflow. Additional points in the 0.01–10 MHz frequency range were collected on a Fast‐Field Cycling (FFC) Stelar SmarTracer Relaxometer. T 1 values at 500 MHz were collected on a Bruker Avance III NMR spectrometer operating at 11.7 T. The concentration of Gd^3+ in the solutions was determined by using bulk magnetic susceptibility (BMS) shift measurements performed at 11.7 T. For the measurements in the biological fluid, lyophilized plasma matrix (Siemens Healthcare) was added to 1 mL of [Gd(ent‐L2)] (1.0 mM) or Seronorm (Sero) was solubilized in 5 mL [Gd(ent‐L2)] (1.0 mM) solution. ^1H NMRD of the final solution was measured at 310 K.

[4] = Biodistribution and in vivo dynamic T1-weighted MRI; parameters: species or system A/J healthy mice; conditions: 0.1 mmol Gd/kg i.v.
Description: Dynamic T 1‐weighted MRI on twelve A/J healthy mice was used to compare the biodistribution of ([Gd(ent‐L2)] and [Gd(BT‐DO3A)] (Gadovist), n = 6 animals each), administered at 0.1 mmol Gd/kg. The MRI monitored the distribution within abdominal tissues for up to 1 h post‐administration MRI images and the pharmacokinetic curves are shown in Figure 6 .
All the procedures and the experiments were conducted according to the national and international laws on experimental animal research (L.D. 26/2014; Directive 2010/63/EU) and under a specific Italian Ministerial Authorization (project research number 46/2015‐PR). Twelve A/J healthy mice (females, 6–7 weeks old, supplied by Envigo RMS S.r.l.) were housed in a controlled environment (22°C, 55% humidity, 15–20 air changes/hour, 12‐h light/dark cycle) with ad libitum access to VRF1 (P) certified pellets and filtered water. To minimize discomfort, the animals were socially housed with enrichment items. Veterinary care was available throughout the study to alleviate any potential pain or distress following procedures. […] The animals were randomly assigned to two experimental groups (n = 6 each, with sample size confirmed via GPower) and underwent to Magnetic Resonance Imaging (MRI) experiments performed using a BioSpec 47/30 preclinical scanner (Bruker Biospin, Ettlingen, Germany) operating at […] (i.e., at a proton Larmor frequency of 125 MHz) and equipped with two‐channel 35 mm RF volume coil. During MRI experiments, all the animals were anaesthetized with isoflurane gas (≈1%) in O2. Anaesthesia was maintained by adjustment of gas level as a function of breath rate. Before injection of each test article, T 1‐weighted spin echo sequences were acquired on the animal in order to check the position of the animal. A series of T 1‐weighted 3D gradient echoscans (repetition time = 50 ms, flip angle = 50°, echo time = 2.8 ms, number of averages = 2, matrix size (3D) = 192 × 192 × 8, field of view = 2.5 × 2.5 × 1.2 cm, acquisition time = 154 s) were then acquired before and after the intravenous administration of a 50 mM saline solution (0.9%) of [Gd(ent‐L2)] (n = 6 mice) and [Gd(BT‐DO3A)] (Gadovist, Bayer Schering, Germany) (n = 6 mice) at an injection rate of ≈2 mL/min through a catheter placed in the tail vein of the animal. Both [Gd(ent‐L2)] and [Gd(BT‐DO3A)] were administered at a dose of 0.1 mmol Gd/kg corresponding to an administration volume of 2 mL kg^−1. The kinetics of the Gd(III)‐complexes was followed up to 60 min post‐injection. After imaging was performed, the mouse was removed from the scanner and returned to the Animal Facility room. At the end of the study all animals were sacrificed by overdose of anaesthesia and cervical dislocation. Unblinded image analysis was performed by positioning the region of interest (ROIs) over liver, kidney, muscle, and blood vessel. ROIs positioning and signal quantification was performed by using a home‐developed plugin, running on Image J.^[ [51] ^]
Signal enhancement (Enh) was calculated using the formula: Enh = 100×(SignalpostCA ‐SignalpreCA)/SignalpreCA, where SignalpreCA and SignalpostCA denote the MR signal before and after administration of contrast agents, respectively. Data were presented as mean ± standard deviation (SD). The sample size (n = 6 per group) was determined a priori using GPower software to ensure adequate statistical power. The Levene's test was employed to assess the homogeneity of variances among groups. For comparisons where homogeneity of variance was confirmed, a one‐way ANalysis Of VAriance (ANOVA) was applied to test the null hypothesis that treatment groups originate from the same distribution. Post‐hoc pairwise multiple comparisons were performed using Tukey's method when significant differences were detected. Statistical analyses and data visualization were conducted using Mathematica (Wolfram, USA), while summary statistics (mean, SD, and standard error) were calculated using Microsoft Excel (USA). […]

Compound: O=C(O)CCC(C(=O)O)N1CCN(C(CCC(=O)O)C(=O)O)Cc2cccc(n2)CN(C(CCC(=O)O)C(=O)O)CC1 (racemic) [rac‐L1, 2,2’,2’’-[3,6,9,15-tetraazabicyclo[9.3.1]pentadeca-1(15),11,13-triene-3,6,9-triyl]tripentanedioic acid]
pGd (Eu^3+) ([1]; 1 µM metal, 10 µM L, pH 7.4): 16.06
logK GdL (Eu^3+) [1]: 18.66
logKGdH2L (Eu^3+) [1]: 4.54
logKGdH3L (Eu^3+) [1]: 4.12
logKGdHL (Eu^3+) [1]: 5.34
logK^c GdL (Eu^3+) ([1]; pH 7.4): 15.10
logK1^H [2]: 10.85
logK2^H [2]: 6.86
logK3^H [2]: 5.37
logK4^H [2]: 4.77
logK5^H [2]: 4.24
logK6^H [2]: 3.4
logK7^H [2]: 1.92
ΣlogKi^H [2]: 37.50

plasma protein binding [3]: lack of plasma protein binding
wash-in and wash-out kinetics ([4]; up to 1 h post-administration): rapid wash‐in and wash‐out
decrease in signal enhancement in the blood compartment ([4]; within 30 min, 3 T): ≥ 50%
Compound: O=C(CCC(C(=O)[O-])N1CCN(C(CCC(=O)NCC(O)CO)C(=O)[O-])Cc2cccc(n2)CN(C(CCC(=O)NCC(O)CO)C(=O)[O-])CC1)NCC(O)CO.[Gd+3] (stereo not drawn) [[Gd(ent‐L2)]]
r1 ([3]; 0.47 T, human plasma, 310 K): 13.6 ± 0.1 mM⁻¹ s⁻¹
r1 ([3]; 0.47 T, saline solution, 310 K): 12.6 ± 0.1 mM⁻¹ s⁻¹
r1 ([3]; 1.41 T, human plasma, 310 K): 13.4 ± 0.2 mM⁻¹ s⁻¹
r1 ([3]; 1.41 T, saline solution, 310 K): 12.6 ± 0.1 mM⁻¹ s⁻¹
r1 ([3]; 3 T, human plasma, 310 K): 13.1 ± 0.2 mM⁻¹ s⁻¹
r1 ([3]; 3 T, saline solution, 310 K): 12.4 ± 0.1 mM⁻¹ s⁻¹
r 1 relative to that of [Gd(BT-DO3A)] (Gadovist) ([3]; 37 °C and 3 T): more than two times higher
change in relaxivity (NMRD profile) in human plasma and in Seronorm ([3]; 310 K, vs water): negligible changes in relaxivity
elimination pathway [4]: renal elimination remains the primary pathway
average maximum signal enhancement in the liver ([4]; 3 T, n = 6): ≈ 210%
maximum signal enhancement in the blood compartment, times higher than that of [Gd(BT-DO3A)] ([4]; same dose, 3 T, significance level 0.1%): ≈ 2 times
